Experimental data as given in publication PMC3906007, “Discovery of a Small Molecule Agonist of Phosphatidylinositol 3-Kinase p110α That Reactivates Latent HIV-1” (PLoS ONE, 2014).
Like-named read-outs stand apart in the source and are kept apart here.

Assays:
[1] = test system: latent HIV-1 in ACH2 cell line; assay: Latent HIV-1 reactivation in ACH2 cells (quantitative PCR of early and late viral RNA transcripts); assay type: cell-based
Procedure: Three different cell lines of HIV-1 latency were used in this study. These included J89GFP, U1 and ACH-2 cells. The J89GFP cells were a kind gift from Dr. David Levy. The ACH-2 and U1 cells were obtained through the AIDS Research and Reference Reagent Program, Division of AIDS, NIAID, NIH: Dr. Thomas Folks contributor [19]–[21]. Reactivation of latent HIV-1 in the J89GFP cells was measured by quantifying the percentage of EGFP positive cells using a BD FACScan flow cytometer with BD FACSDiva software (BD Biosciences, CA), as described previously. Reactivation of latent HIV-1 in the ACH-2 and U 1 cells was assessed by quantitative analysis of initiated and elongated HIV-1 transcripts, as described previously. All 3 cell lines were maintained in RMPI 1640 medium supplemented with 10% FBS, 0.3 mg/mL L-glutamine, 100 U/mL penicillin, and 100 µg/mL streptomycin at 37°C in humidified air with 5% CO2.
Figure 2 Latent HIV-1 reactivation activity of 57704, alone and in combination with other inducing agents, in the U1 and ACH2 cell line models of virus latency. HIV-1 expression was assessed by quantitative PCR analysis of early and late viral RNA transcripts. Where appropriate, TNFα was used as an activation control. (A) Latent HIV-1 reactivation of activity 57704 in the J89GFP cell line. […] EC50 values were determined in Sigma Plot by nonlinear regression, as described previously. […]

[2] = Cytotoxicity (MTT or CellTiter 96), 293T; assay type: cell-based; settings: human, 293T cells; 24 hour incubation; mean ± SD, 3 replicates
Procedure: (§1) Following a 24 hour incubation period, cell viability was measured using either the MTT (Roche Applied Science, Indianapolis, IN) or CellTiter 96 proliferation (Promega, WI) assay.

[3] = test system: purified T cells; assay: Global T cell activation (surface expression of CD69, CD38 and HLA-DR); assay type: cell-based; settings: different concentrations, up to 5 days
Text: Peripheral blood MNC were obtained from the blood of healthy donors by Ficoll-Paque PLUS (GE Healthcare, Piscataway, NJ) density gradient centrifugation. T cells were isolated using the Pan T Cell Isolation kit (Miltenyi Biotec, Auburn, CA) according to manufacturer's instruction. Briefly, non-T cells were depleted from the MNC using biotin-conjugated antibodies to CD14, CD15, CD16, CD19, CD34, CD36, CD56, CD123, and CD235a and anti-biotin-labeled magnetic beads. […] Cells were then washed twice with PBS, resuspended in PBS with 4% PFA and stored in the refrigerator until analysis. Samples were analyzed on a BD LSRII flow cytometer and analyzed using FACsDiva software (BD Biosciences, Mountain View, CA). Forward versus side scatter plot was used to define the live cell population and fluorescence gates were set based on isotype control fluorescence.

[4] = Cytotoxicity (MTT or CellTiter 96), CD8+-depleted MNC; assay type: cell-based; settings: human, CD8+-depleted mononuclear cells (MNC) from whole blood; 24 hour incubation; mean of 2 replicates
Procedure: as §1
(§2) CD8+T-cells were depleted from whole blood using RosetteSep Human CD8 Depletion Cocktail (StemCell Technologies, Vancouver, BC) according to manufacturer's instructions. 2×10^6 CD4^+ MNC cells were seeded in triplicate per treatment in 48-well plates and allowed to rest overnight. All wells were maintained in 81 nM efavirenz. […] Activation controls were treated with CD3/CD28 Dynabeads (Life Technologies, Grand Island, NY). After 7 days of incubation, supernatants from triplicate wells were pooled, centrifuged (500 g×5 min), and stored at −80°C. HIV-1 RNA levels in supernatants were determined using the COBAS® AmpliPrep/COBAS® TaqMan® HIV-1 Test, v2.0 (Roche, Indianapolis, IN).

[5] = test system: PI3K p110δ RNA; assay: PI3K isoform RNA transcript levels in J89GFP cells, p110δ; assay type: cell-based; settings: 5 µM
[6] = test system: PI3K p110α RNA; assay: PI3K isoform RNA transcript levels in J89GFP cells, p110α; assay type: cell-based; settings: 5 µM
[7] = Cytotoxicity (MTT or CellTiter 96), Jurkat; assay type: cell-based; settings: human, Jurkat cells; 24 hour incubation; mean ± SD, 3 replicates
Procedure: as §1

[8] = target: T1, HDAC8 (Homo sapiens, UniProt Q9BY41); assay: Fluorogenic HDAC activity assay, HDAC8; assay type: biochemical
T1 construct: purchased BPS Bioscience (San Diego, CA)
T1 sequence (Q9BY41 1-377): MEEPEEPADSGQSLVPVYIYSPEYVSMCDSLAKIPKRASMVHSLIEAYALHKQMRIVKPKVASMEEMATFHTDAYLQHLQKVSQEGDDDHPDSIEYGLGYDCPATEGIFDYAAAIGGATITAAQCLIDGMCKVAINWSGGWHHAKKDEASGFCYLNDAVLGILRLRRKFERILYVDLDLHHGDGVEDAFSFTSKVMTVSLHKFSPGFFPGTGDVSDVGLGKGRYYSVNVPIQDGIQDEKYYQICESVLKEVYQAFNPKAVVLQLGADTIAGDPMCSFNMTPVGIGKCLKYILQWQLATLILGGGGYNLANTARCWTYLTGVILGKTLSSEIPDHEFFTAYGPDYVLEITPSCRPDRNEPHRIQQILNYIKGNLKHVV
Procedure: The lysine deacetylase activity of HDACs 1, 2, 3, and 8 was assessed using the Fluorogenic HDAC Assay (BPS Bioscience, San Diego, CA) according to the manufacturer's instructions. […] All assays were carried out under steady-state conditions and the assay read-out was optimized for linearity both as a function of time and enzyme concentration. The formation of the fluorescent product was measured using a SpectraMax M2 Plate Reader (Molecular Devices, CA). The excitation and emission wavelengths were 360 nm and 450 nm, respectively.

[9] = test system: latent HIV-1 in CD8+-depleted MNC; assay type: cell-based; settings: for Copies HIV RNA/mL: 7 days
Text: Healthy HIV-1 uninfected blood donors and HIV-1-infected donors on suppressive cART with plasma HIV-1 RNA less than 50 copies/mL for >2 year provided written informed consent and underwent a large volume phlebotomy (100–200 mLs). The protocol for blood donation was approved by the Institutional Review Board of the University of Pittsburgh (IRB #PRO10070203).
as §2, with “overnight.” for “overnight. All wells were maintained in 81 nM efavirenz.”

Q: For COc1cc2c(cc1OC)-c1c(OC)c(OC)cc3ccnc(c13)C2=O [Compound 57704, 1,2,9,10-tetramethoxy-7H-dibenzo[de,g]quinolin-7-one], which EC50 ([1]; Human immunodeficiency virus 1, ACH-2, read-out: EC50, activation of early HIV-1 gene transcript expression) is on record?
A: 9 µM

Q: What about the EC50 ([1]; Human immunodeficiency virus 1, ACH-2, read-out: EC50, activation of late HIV-1 gene transcript expression) of the same compound?
A: 6.2 µM

Q: What about the CC50 at 24 h [2] of the same compound?
A: 106 ± 31.4 µM

Q: What about the “Surface expression of CD69, CD38 and HLA-DR” value [3] of the same compound?
A: did not up-regulate

Q: And the CC50 at 24 h [4]?
A: 80 µM

Q: And the “Effect on PI3K p110δ RNA transcript levels / gene expression” value [5]?
A: no effect

Q: And the “Effect on PI3K p110α RNA transcript levels” value [6]?
A: no effect

Q: And the CC50 at 24 h [7]?
A: 92.9 ± 7.5 µM

Q: And the IC50 [8]?
A: > 50 µM

Q: And the “Increase of HIV-1 RNA in culture supernatants compared to the control” value ([9]; 5 µM 57704, mean of 4 donors)?
A: ~4 fold

Q: And the “CD8+-depleted blood mononuclear cell preparations (donors) with increased HIV-1 expression” value ([9]; 4 donors on suppressive cART tested)?
A: 3 of 4

Q: What about the “Copies HIV RNA/mL” value ([9]; donor 1, 1 µM 57704, control 96) of the same compound?
A: 0 copies/mL

Q: What about the “Copies HIV RNA/mL” value ([9]; donor 1, 5 µM 57704, control 96) of the same compound?
A: 389 copies/mL

Q: And the “Copies HIV RNA/mL” value ([9]; donor 2, 1 µM 57704, control 0)?
A: 79 copies/mL

Q: What about the “Copies HIV RNA/mL” value ([9]; donor 2, 5 µM 57704, control 0) of the same compound?
A: 35 copies/mL

Q: What about the “Copies HIV RNA/mL” value ([9]; donor 3, 1 µM 57704, control 0) of the same compound?
A: 10 copies/mL

Q: And the “Copies HIV RNA/mL” value ([9]; donor 3, 5 µM 57704, control 0)?
A: 0 copies/mL

Q: What about the “Copies HIV RNA/mL” value ([9]; donor 4, 1 µM 57704, control 20) of the same compound?
A: 20 copies/mL
